This note sets out measurements from patent US10737995B2, “Nuclear receptor modulators and their use for the treatment and prevention of cancer” (The United States of America, as represented by the …, priority 2011, dated 2020).

What is called IC50 is the midpoint of a concentration-inhibition curve.

Experiment [1] relates to PSA mRNA expression in LNCaP cells. The experiment is described as follows: PSA mRNA expression in LNCaP cells, real time RT-PCR. Particulars: for inhibition of PSA mRNA: LNCaP cells (FIG. 12); for inhibition of PSA mRNA expression: 500 nM (FIG. 9); for agonistic effects on PSA and TMPRSS2 mRNA levels: dose dependent study (FIG. 9); for block of R1881-induced PSA mRNA induction: in the presence of R1881, dose-dependent manner (FIG. 6). It counts as cell-based, human. As for the experimental part:
FIG. 3 is a graph showing the inhibition of PSA mRNA expression. […] As shown in the graph, a hit was identified that inhibited over 90% PSA mRNA expression in LNCaP cells at 10 μM after 20 hours of treatment.
(§1) LNCaP cells were incubated for 3 days in phenol red-free RPMI 1640 supplemented with 10% charcoal-stripped FBS and 1% antimycotic-antibiotic solution, and then cells were treated for 20 hours. The concentration of R1881 was 0.5 nM, and that of the corresponding compounds was 10, 5 or 1 μM, respectively. Compound 49 inhibited PSA mRNA expression 80% in the presence of R1881 at 5 μM. This activity was similar to bicalutamide.
(§2) For PSA, TMPRSS2, and UBE2C mRNA determination, LNCaP cells or 22Rv1 cells, were cultured and treated with the corresponding compounds for 20 hours in the presence or absence of the synthetic androgen R1881. Total RNA was isolated from cultured cells using the RNeasy RNA Isolation Kit (Qiagen). The RNAs were reverse transcribed immediately after RNA extraction with the High Capacity cDNA Reverse Transcription Kit (Applied Biosystems), using random primers included in the kit, according to the manufacturer's instructions. The cDNA products were stored at −20° C. until the PCR analysis was performed. Real-time PCR primers were designed using Primer Express Applications (Applied Biosystems). The primer sequences for real-time PCR were as follows:
(§3) The mRNA level and total protein in cells were measured after treatment with either control, bicalutamide (0.08 μM to 1.25 μM), or MDV3100 (an antiandrogen) and either about 2.5 μM or about 1.0 μM of Compounds 1-117 respectively. It was known that the expression of PSA mRNA in LNCaP cells is driven by an AR mediated pathway. While PSA is androgen-dependent AR-target gene, UBE2C is androgen-independent AR-target gene. The PSA, TMPRSS2 and UBE2C mRNA levels were normalized by the rRNA level.
(In general: Quantitative PCR measures a nucleic acid by following its amplification.)

Experiment [2] relates to TMPRSS2 mRNA expression in LNCaP cells. Nature of the experiment: TMPRSS2 mRNA expression in LNCaP cells, real time RT-PCR. It counts as cell-based, human. Particulars: for inhibition of TMPRSS2 mRNA: LNCaP cells (FIG. 12); for block of R1881-induced TMPRSS2 mRNA induction: in the presence of R1881, dose-dependent manner (FIG. 6). As to the method: as §1, §2, §3
Experiment [3] concerns UBE2C mRNA expression in LNCaP cells. Nature of the experiment: UBE2C mRNA expression in LNCaP cells, real time RT-PCR. Particulars: LNCaP cells (FIG. 12). The experiment is classed as cell-based, human. As for the experimental part:
as §2, §3

Experiment [4] deals with PSA mRNA expression in 22Rv1 cells. The experiment is described as follows: PSA mRNA expression in 22Rv1 cells, real time RT-PCR. It counts as cell-based, human. As to the method: as §2
[…] It was known that the expression of PSA mRNA in LNCaP cells is driven by an AR mediated pathway. While PSA is androgen-dependent AR-target gene, UBE2C is androgen-independent AR-target gene. The PSA, TMPRSS2 and UBE2C mRNA levels were normalized by the rRNA level.

For experiment [5], the system named is UBE2C mRNA expression in 22Rv1 cells. The experiment is described as follows: UBE2C mRNA expression in 22Rv1 cells, real time RT-PCR. The experiment is classed as cell-based, human. Particulars: 22Rv1 cells (FIG. 13). As to the method: as §2, §3
The test system of experiment [6] is LNCaP cells. The experiment is described as follows: LNCaP cell growth, Trypan blue viable cell count. The experiment is classed as cell-based. Particulars: Homo sapiens, 72 h, 3 days incubation, Trypan blue viable cell number, read-out: IC50 of LNCaP cell growth inhibition. As for the experimental part:
LNCaP cells were incubated with Compound 49 for 3 days. Viable cell number was determined by Trypan blue staining and counting in a hemocytometer. The IC50 value of Compound 49 was 3 μM.

For experiment [7], the system named is AR in LNCaP cells. Nature of the experiment: AR Western blot, LNCaP cells treated 6 hours. It counts as cell-based, human. Particulars: 10 μM (data not shown). As for the experimental part:
LNCaP cells were maintained as above. At 50% confluence, cells were washed several times in serum-free RPMI-1640 medium, and re-cultured for 72 hours in RPMI-1640 medium containing 10% charcoal-stripped fetal bovine serum. Cells were treated with R1881 (0.5 nM), with, or without 10 μM, 5 μM or 1 μM of Compounds 1-117, and then cells were cultured for 20 hours. Nuclear and cytoplasmic protein fractionation was performed using NE-PER Nuclear and Cytoplasmic Extraction Reagents Kit (Thermo Scientific Pierce Protein Research Products) according to the manufacturer's instructions. Quantification of AR in nucleus and cytosol was performed by Western blotting with an AR-specific antibody following polyacrylamide gel electrophoresis.
LNCaP cells were also tested after treatment for only 6 hours. Compounds 49, 80 and 86, as well as KU135 (a C-terminal Hsp90 inhibitor) and 17-AAG (a known AR degradation inducer), were tested at 2.5, 5, and 10 μM as well as control (DMSO vehicle). […] LAPC-4 cells (a human prostate cancer cell line with wt AR) were tested against Compounds 80, 86, KU-32 (another C-terminal Hsp90 inhibitor) and 17-AAG.
For orientation: A western blot detects proteins with antibodies after separation by electrophoresis.

Experiment [8] relates to genome-wide transcriptional response. Nature of the experiment: Microarray analysis of genome-wide transcriptional response. The experiment is classed as cell-based, human. As for the experimental part:
This example illustrates that Compound 86 has an impact on AR-driven gene expression (PSA) and androgen-independent AR-driven gene expression (e.g., UBE2C). A microarray analysis was performed on the genome-wide transcriptional response to Compound 86 compared with the antiandrogens bicalutamide and MDV3100, and solvent DMSO. Each compound was tested at two concentrations: 1 and 5 μM. The data were subjected to bioinformatics analysis using the Partek Genomics Software. […] FIG. 19B depicts a different view in 3-dimensional space again reinforcing the differences between Compound 86 versus DMSO, bicalutamide and MDV3100. This visual assessment is consistent with the data showing that Compound 86 and not DMSO, bicalutamide, or MDV3100, can inhibit the androgen-independent, androgen receptor-dependent transcriptional program of castrate-resistant prostate cancer.

Experiment [9] has as its system R1881-induced AR translocation to the nucleus. Nature of the experiment: AR translocation, immunocytochemistry in LNCaP cells. The experiment is classed as cell-based, human. Particulars: 10 μM for three hours, then 1 nM R1881 for three hours (FIG. 7). As for the experimental part:
FIG. 7 is a graph showing the results of an AR translocation experiment. LNCaP cells were incubated on cover slips in phenol red free RPMI 1640 with 10% charcoal stripped FBS and 1% antimycotic-antibiotic solution for three days. Cells were treated with DMSO, bicalutamide (10 μM) or Compound 11 for three hours, followed by treatment with 1 nM R1881 for three hours. Cells were washed with PBS, fixed with 0.4% paraformaldehyde for 30 min at 37° C., washed with PBS, permeabilized with 0.4% Triton X-100 for 10 min, and then stained with anti-AR antibody (1:100 dilution, Santa Cruz Biotechnology, Santa Cruz, Calif.) for 1 hour at room temperature. After washing with PBS, cells were stained with FITC-labeled goat anti-rabbit IgG (1:200 dilution, BD Biosciences, San Jose, Calif.) for 1 hour at room temperature. After washing with PBS, cells were incubated for 10 min with Hoechst 33342 for nuclear staining, washed, and the dried cover slips were mounted on glass slides with SlowFade Gold anti-fade reagent (Invitrogen). Fluorescence images were obtained using a Leica® DM IRB fluorescence microscope, and nuclear-to-cytoplasmic AR ratios were measured using OpenLab® (Perkin Elmer, Waltham, Mass.) software. […]

Experiment [10] deals with TMPRSS2 mRNA expression in 22Rv1 cells. Nature of the experiment: TMPRSS2 mRNA expression in 22Rv1 cells, real time RT-PCR. It counts as cell-based, human. Particulars: 22Rv1 cells (FIG. 13). As for the experimental part: as §2, §3
Setting [11] is: LNCaP cells, synthetic androgen R1881 (FIG. 6).

As for `C[C@]1(O)CC[C@H]2[C@@H]3CCC4=CC(=O)CCC4=C3C=C[C@@]21C` [Compound R1881, methyltrienolone, reference compound], the “PSA mRNA induction compared with the DMSO control” value in experiment [1] (setting [11]) is “about 500 fold”. Also, the “TMPRSS2 mRNA induction compared with the DMSO control” value in [2] (setting [11]) is ~30 fold.
As to `COc1ccccc1C(=O)/C=C/c1ccccc1[N+](=O)[O-]` [Compound 49], the “inhibition of PSA mRNA” value in experiment [1] is recorded as “inhibited”. The “inhibition of PSA mRNA expression in the presence of R1881” value in [1] (LNCaP cells, 0.5 nM R1881, 5 μM, 20 hours (FIG. 10)) is recorded as 80%. Besides, in experiment [1] (LNCaP cells), the “inhibition of PSA mRNA expression” value was 50%; the “agonistic effects on PSA and TMPRSS2 mRNA levels” value is given as “No agonistic effects”. For the same molecule, in experiment [2], the “inhibition of TMPRSS2 mRNA” value is reported as “inhibited”. For the same molecule, in [3], the “inhibition of UBE2C mRNA” value is on record as “not effective”. The “inhibition of PSA mRNA expression compared to control” value in experiment [4] (22Rv1 cells (FIG. 13)) amounted to 80%. The “inhibition of UBE2C mRNA expression” value in experiment [5] is recorded as “completely failed to inhibit”. Further, the concentration for half-maximal inhibition (IC50) in [6] worked out at 3000 nM.
`COc1cc(C(=O)/C=C/c2cccc([N+](=O)[O-])c2)cc(OC)c1OC` [Compound 80]: in experiment [7], the “inhibition in AR Western blot” value was “showed inhibition”.
For the molecule `CNC(=O)c1ccc(N2C(=S)N(c3ccc(C#N)c(C(F)(F)F)c3)C(=O)C2(C)C)cc1F` [MDV3100, 4-(3-(4-cyano-3-(trifluoromethyl)phenyl)-5,5-dimethyl-4-oxo-2-thioxoimidazolidin-1-yl)-2-fluoro-N-methylbenzamide], the “sensitivity of PSA mRNA expression” value in experiment [4] (22Rv1 cells, 20 hours of exposure, 10 μM (FIG. 14)) was “insensitive”. The “inhibition of the androgen-independent, androgen receptor-dependent transcriptional program of castrate-resistant prostate cancer” value in [8] is recorded as “not”.
As for `COc1ccc(C(=O)/C=C/c2ccc([N+](=O)[O-])cc2)c(OC)c1OC` [Compound 11], in experiment [1], the “block of R1881-induced PSA mRNA induction” value is recorded as “blocked”. Moreover, in experiment [2], the “block of R1881-induced TMPRSS2 mRNA induction” value was “blocked”. In experiment [9], the “inhibition of R1881-induced AR translocation to the nucleus (nuclear-to-cytoplasmic AR ratio)” value is “markedly more active than bicalutamide”.
Turning to `COc1ccc(C(=O)/C=C/c2ccc(C#N)cc2)cc1OC` [Compound 103], the “inhibition of PSA mRNA” value in experiment [1] was “inhibited”. In addition, in experiment [1] (LNCaP cells), the “inhibition of PSA mRNA expression” value stood at 50%; the “agonistic effects on PSA and TMPRSS2 mRNA levels” value was “No agonistic effects”. The “inhibition of TMPRSS2 mRNA” value in [2] is “inhibited”. Besides, the “inhibition of UBE2C mRNA” value in experiment [3] is given as “not effective”.
Regarding `CC(O)(CS(=O)(=O)c1ccc(F)cc1)C(=O)Nc1ccc(C#N)c(C(F)(F)F)c1` (stereo not drawn) [bicalutamide, reference compound], the half-maximal inhibitory concentration (IC50) in [1] (Homo sapiens, LNCaP cells, dose-dependent study (FIG. 4), read-out: IC50 of PSA mRNA inhibition) is 300 nM. The “inhibition of PSA mRNA expression” value in experiment [4] (22Rv1 cells (FIG. 13)) is on record as “No inhibition”. Further, the “inhibition of TMPRSS2 mRNA expression” value in [10] was “No inhibition”. The “inhibition of UBE2C mRNA expression” value in experiment [5] is recorded as “No inhibition”.
`COc1ccc(C(=O)/C=C/c2cccc([N+](=O)[O-])c2)c(OC)c1OC` [Compound 12]: the “agonistic effect on AR target gene expression” value in [1] (1 μM, PSA and TMPRSS2, in the presence of R1881 (FIG. 6)) is “weak agonistic effect”. Besides, in [1] (high concentrations, PSA and TMPRSS2, in the presence of R1881), the “activity in blocking R1881-induced AR target gene expression relative to Compound 11” value is reported as “more active”. Moreover, in experiment [1], the “block of R1881-induced PSA mRNA induction” value is given as “blocked”. In addition, the “block of R1881-induced TMPRSS2 mRNA induction” value in experiment [2] is “blocked”.
